In patent US12187723B2 (BRISTOL-MYERS SQUIBB COMPANY, priority 2019, dated 2025) one finds IC50 data, which are given here for 16 molecules.

A value given as a limit tells only on which side of the number the result lay.

One experiment concerns the target T1, human TLR8 (Homo sapiens, UniProt Q9NR97).
T1 construct: host or cells: HEK-Blue cells
T1 sequence (Q9NR97 27-1041): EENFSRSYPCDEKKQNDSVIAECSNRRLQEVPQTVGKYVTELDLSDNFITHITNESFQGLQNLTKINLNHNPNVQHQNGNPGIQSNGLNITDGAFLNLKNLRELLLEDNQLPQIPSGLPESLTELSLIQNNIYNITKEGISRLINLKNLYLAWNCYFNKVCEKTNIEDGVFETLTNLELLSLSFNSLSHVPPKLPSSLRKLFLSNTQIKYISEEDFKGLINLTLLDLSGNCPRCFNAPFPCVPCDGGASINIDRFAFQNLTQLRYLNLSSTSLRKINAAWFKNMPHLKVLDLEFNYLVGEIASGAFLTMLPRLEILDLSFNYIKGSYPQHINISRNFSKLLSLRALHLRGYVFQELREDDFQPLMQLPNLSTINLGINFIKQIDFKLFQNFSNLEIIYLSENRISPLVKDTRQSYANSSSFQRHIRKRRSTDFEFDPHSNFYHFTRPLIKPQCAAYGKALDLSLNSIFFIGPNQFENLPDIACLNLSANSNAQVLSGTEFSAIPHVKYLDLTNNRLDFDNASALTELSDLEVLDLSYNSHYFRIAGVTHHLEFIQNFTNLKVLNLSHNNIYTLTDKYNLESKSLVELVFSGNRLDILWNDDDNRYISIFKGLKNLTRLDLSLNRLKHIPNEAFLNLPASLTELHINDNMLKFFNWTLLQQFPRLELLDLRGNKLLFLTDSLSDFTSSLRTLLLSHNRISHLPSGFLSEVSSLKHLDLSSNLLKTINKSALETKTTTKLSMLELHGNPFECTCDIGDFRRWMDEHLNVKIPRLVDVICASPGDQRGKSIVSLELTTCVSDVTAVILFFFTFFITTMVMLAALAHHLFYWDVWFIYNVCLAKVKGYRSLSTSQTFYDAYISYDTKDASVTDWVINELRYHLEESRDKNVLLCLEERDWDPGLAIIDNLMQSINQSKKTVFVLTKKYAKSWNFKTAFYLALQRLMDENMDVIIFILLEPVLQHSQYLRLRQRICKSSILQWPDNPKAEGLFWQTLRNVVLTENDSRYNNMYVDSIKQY
Briefly: TLR8 inhibition reporter assay (HEK-Blue SEAP). Format: cell-based. The following applies: HEK-Blue cells overexpressing human TLR8, R848 15.9 μM, 22 hour incubation. In a few lines:
(§1)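 Agonists used: gardiquimod 7.5 μM (TLR7), R848 15.9 μM (TLR8), ODN2006 5 nM (TLR9), added after 30 min room-temperature compound pre-treatment (0.05 nM–50 μM) of receptor-overexpressing HEK-Blue cells. SEAP reporter (NF-κB/AP-1 driven) read after 22 h at 37 °C; inhibition scaled between agonist+DMSO and reference-inhibitor wells.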

A further experiment has as its target T2, human TLR9 (Homo sapiens, UniProt Q9NR96).
T2 construct: host or cells: HEK-Blue cells
T2 sequence (Q9NR96 26-1032): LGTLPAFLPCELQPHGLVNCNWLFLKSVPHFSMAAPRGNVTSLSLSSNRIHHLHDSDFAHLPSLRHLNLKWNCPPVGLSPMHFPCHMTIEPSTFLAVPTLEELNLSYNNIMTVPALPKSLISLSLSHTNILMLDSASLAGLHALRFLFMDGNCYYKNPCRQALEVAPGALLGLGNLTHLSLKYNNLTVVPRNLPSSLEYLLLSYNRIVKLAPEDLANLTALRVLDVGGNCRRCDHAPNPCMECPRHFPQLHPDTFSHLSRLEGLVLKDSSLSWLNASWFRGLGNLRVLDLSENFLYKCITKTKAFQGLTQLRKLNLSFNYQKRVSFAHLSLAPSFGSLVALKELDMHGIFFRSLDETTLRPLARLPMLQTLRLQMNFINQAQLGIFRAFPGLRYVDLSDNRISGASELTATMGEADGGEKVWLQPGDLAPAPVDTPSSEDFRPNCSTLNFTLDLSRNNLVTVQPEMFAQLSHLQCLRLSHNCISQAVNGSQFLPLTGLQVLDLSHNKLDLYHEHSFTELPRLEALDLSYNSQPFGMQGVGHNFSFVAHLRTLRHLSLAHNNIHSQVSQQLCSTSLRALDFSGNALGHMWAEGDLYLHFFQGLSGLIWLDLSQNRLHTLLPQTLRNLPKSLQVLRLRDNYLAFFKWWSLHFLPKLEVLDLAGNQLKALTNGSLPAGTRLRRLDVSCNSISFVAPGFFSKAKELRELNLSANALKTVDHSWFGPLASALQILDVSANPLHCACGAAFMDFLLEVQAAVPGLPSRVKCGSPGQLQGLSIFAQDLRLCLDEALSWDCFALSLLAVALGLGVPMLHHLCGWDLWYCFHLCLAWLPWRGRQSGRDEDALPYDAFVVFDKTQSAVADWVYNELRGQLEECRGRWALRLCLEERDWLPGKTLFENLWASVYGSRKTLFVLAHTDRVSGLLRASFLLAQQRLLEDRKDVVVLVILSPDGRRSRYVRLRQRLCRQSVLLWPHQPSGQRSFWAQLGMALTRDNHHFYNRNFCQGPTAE
Briefly: TLR9 inhibition reporter assay (HEK-Blue SEAP). Format: cell-based. The conditions noted are these: HEK-Blue cells overexpressing human TLR9, ODN2006 5 nM, 22 hour incubation. The method, boiled down: as §1

With `COc1ncc(CN2CCC[C@H](n3c(=O)[nH]c4cc(-c5cc(C)c6ncnn6c5)c(C)cc43)C2)cn1` [Example 36, (S)-1-(1-((2-methoxypyrimidin-5-yl)methyl)piperidin-3-yl)-6-methyl-5-(8-methyl-[1,2,4]triazolo[1,5-a]pyridin-6-yl)-1,3-dihydro-2H-benzo[d]imidazol-2-one], the figures for the IC50 against human TLR8 and at human TLR9 were 37.5 nM and 30600 nM, respectively.
Consider `COc1cc(-c2cc3[nH]c(=O)n([C@@H]4CCCN(CC5CC5)C4)c3cc2C)cn2ncnc12` [Example 55, (R)-1-(1-(cyclopropylmethyl)piperidin-3-yl)-5-(8-methoxy-[1,2,4]triazolo[1,5-a]pyridin-6-yl)-6-methyl-1,3-dihydro-2H-benzo[d]imidazol-2-one], for which the IC50 against human TLR8 was determined as 19.5 nM; at human TLR9, 5550 nM.
Taken in the same sequence, the figures for `Cc1cc2c(cc1-c1cc(C)c3ncnn3c1)[nH]c(=O)n2[C@@H]1CCCN(CC2CCCC2)C1` [Example 47, (R)-1-(1-(cyclopentylmethyl)piperidin-3-yl)-6-methyl-5-(8-methyl-[1,2,4]triazolo[1,5-a]pyridin-6-yl)-1,3-dihydro-2H-benzo[d]imidazol-2-one] were 32.8 nM and 3620 nM.
For `Cc1cc(-c2ccc3c(c2)[nH]c(=O)n3C2CCN(CC(=O)N(C)C)CC2)cn2ncnc12` [Example 90, N,N-dimethyl-2-(4-(5-(8-methyl-[1,2,4]triazolo[1,5-a]pyridin-6-yl)-2-oxo-2,3-dihydro-1H-benzo[d]imidazol-1-yl)piperidin-1-yl)acetamide], the IC50 against human TLR8 is > 3130 nM; at human TLR9, 14600 nM.
Taken in the same sequence, the figures for `COc1cc(-c2cc3[nH]c(=O)n([C@H]4CC[C@@H](NC5CCCCC5)CC4)c3cc2C)cn2ncnc12` [Example 62, 1-((1s,4s)-4-(cyclohexylamino)cyclohexyl)-5-(8-methoxy-[1,2,4]triazolo[1,5-a]pyridin-6-yl)-6-methyl-1,3-dihydro-2H-benzo[d]imidazol-2-one] were 1.85 nM and 2350 nM.
On the same counts, the results for `COc1cc(-c2cc3[nH]c(=O)n([C@H]4CC[C@@H](NC(C)C)CC4)c3cc2C)cn2ncnc12` [Example 50, 1-((1s,4s)-4-(isopropylamino)cyclohexyl)-5-(8-methoxy-[1,2,4]triazolo[1,5-a]pyridin-6-yl)-6-methyl-1,3-dihydro-2H-benzo[d]imidazol-2-one] are 4.86 nM and 10900 nM.
On to `COc1cc(-c2ccc3c(c2)[nH]c(=O)n3C2CCN(C(C)C)CC2)cn2ncnc12` [Example 77, 1-(1-isopropylpiperidin-4-yl)-5-(8-methoxy-[1,2,4]triazolo[1,5-a]pyridin-6-yl)-1,3-dihydro-2H-benzo[d]imidazol-2-one], for which the values for the IC50 at human TLR8 and against human TLR9 were > 3130 nM and 417 nM, respectively.
For `COc1cc(-c2cc3[nH]c(=O)n([C@H]4CC[C@@H](N(C)C5CCOCC5)CC4)c3cc2C)cn2ncnc12` [Example 85, 5-(8-methoxy-[1,2,4]triazolo[1,5-a]pyridin-6-yl)-6-methyl-1-((1s,4s)-4-(methyl(tetrahydro-2H-pyran-4-yl)amino)cyclohexyl)-1,3-dihydro-2H-benzo[d]imidazol-2-one], the figures for the IC50 on human TLR8 and at human TLR9 were 7.14 nM and 7940 nM, respectively.
On to `COc1cc(-c2ccc3c(c2)[nH]c(=O)n3C2CCN(C3COC3)CC2)cn2ncnc12` [Example 80, 5-(8-methoxy-[1,2,4]triazolo[1,5-a]pyridin-6-yl)-1-(1-(oxetan-3-yl)piperidin-4-yl)-1,3-dihydro-2H-benzo[d]imidazol-2-one], for which the 50% inhibitory concentration (IC50) against human TLR8 is > 3130 nM; on human TLR9, 39600 nM.
Consider `COc1cc(-c2ccc3c(c2)[nH]c(=O)n3C2CCN(CC3CCOCC3)CC2)cn2ncnc12` [Example 78, 5-(8-methoxy-[1,2,4]triazolo[1,5-a]pyridin-6-yl)-1-(1-((tetrahydro-2H-pyran-4-yl)methyl)piperidin-4-yl)-1,3-dihydro-2H-benzo[d]imidazol-2-one], for which the half-maximal inhibitory concentration (IC50) was 1380 nM at human TLR8 and 2850 nM on human TLR9.
As to `Cc1cc2c(cc1-c1cc(C)c3ncnn3c1)[nH]c(=O)n2[C@@H]1CCCN(CC2CCOCC2)C1` [Example 41, (R)-6-methyl-5-(8-methyl-[1,2,4]triazolo[1,5-a]pyridin-6-yl)-1-(1-((tetrahydro-2H-pyran-4-yl)methyl)piperidin-3-yl)-1,3-dihydro-2H-benzo[d]imidazol-2-one], the IC50 against human TLR8 was determined as 27.1 nM; on human TLR9 it was 8120 nM.
Consider `CCN1CCC[C@@H](n2c(=O)[nH]c3cc(-c4cc(OC)c5ncnn5c4)c(C)cc32)C1` [Example 52, (R)-1-(1-ethylpiperidin-3-yl)-5-(8-methoxy-[1,2,4]triazolo[1,5-a]pyridin-6-yl)-6-methyl-1,3-dihydro-2H-benzo[d]imidazol-2-one], for which the IC50 was 25.7 nM against human TLR8 and 2960 nM on human TLR9.
Turning to `Cc1cc2c(cc1-c1cc(C)c3ncnn3c1)[nH]c(=O)n2[C@H]1CC[C@@H](NCc2ncn(C)n2)CC1` [Example 33, 6-methyl-1-((1s,4s)-4-(((1-methyl-1H-1,2,4-triazol-3-yl)methyl)amino)cyclohexyl)-5-(8-methyl-[1,2,4]triazolo[1,5-a]pyridin-6-yl)-1,3-dihydro-2H-benzo[d]imidazol-2-one], the figures for the half-maximal inhibitory concentration (IC50) against human TLR8 and against human TLR9 were 10.9 nM and 21100 nM, respectively.
Consider `COc1cc(-c2cc3[nH]c(=O)n([C@@H]4CCCN(C)C4)c3cc2C)cn2ncnc12` [Example 51, (R)-5-(8-methoxy-[1,2,4]triazolo[1,5-a]pyridin-6-yl)-6-methyl-1-(1-methylpiperidin-3-yl)-1,3-dihydro-2H-benzo[d]imidazol-2-one], for which the concentration for half-maximal inhibition (IC50) against human TLR8 amounted to 21 nM; at human TLR9, 8390 nM.
As for `COc1cc(-c2cc3[nH]c(=O)n([C@H]4CC[C@@H](NCC(C)C)CC4)c3cc2C)cn2ncnc12` [Example 61, 1-((1s,4s)-4-(isobutylamino)cyclohexyl)-5-(8-methoxy-[1,2,4]triazolo[1,5-a]pyridin-6-yl)-6-methyl-1,3-dihydro-2H-benzo[d]imidazol-2-one], the IC50 amounted to 2.35 nM against human TLR8 and 5510 nM against human TLR9.
Take `COc1cc(-c2cc3[nH]c(=O)n([C@H]4CC[C@@H](N(C)C)CC4)c3cc2C)cn2ncnc12` [Example 48, 1-((1s,4s)-4-(dimethylamino)cyclohexyl)-5-(8-methoxy-[1,2,4]triazolo[1,5-a]pyridin-6-yl)-6-methyl-1,3-dihydro-2H-benzo[d]imidazol-2-one]: the results for the 50% inhibitory concentration (IC50) on human TLR8 and against human TLR9 were 5.33 nM and 3770 nM, respectively.
